Reference: patent US20230060581A1, “METHOD OF TREATING PANCREATIC CANCER” (CEDARS-SINAI MEDICAL CENTER, priority 2020, published 2023)
Entries after “also recorded” stand apart in the source; their conditions may differ. Read-outs that look alike come from different tables or passages of the source.

Assays:
[1] = system: BRAF ΔNVTAP deletion; details: patients with ΔNVTAP deletion, clinical case reports; cited from earlier work
[2] = biological target: BRAF N486_P490del (delta-NVTAP) (Homo sapiens, UniProt P15056, DEL486-490); details: experimentally, PMID: 26996308; cited from earlier work
BRAF N486_P490del (delta-NVTAP), sequence (P15056 with tags, fused parts or gaps DEL486-490): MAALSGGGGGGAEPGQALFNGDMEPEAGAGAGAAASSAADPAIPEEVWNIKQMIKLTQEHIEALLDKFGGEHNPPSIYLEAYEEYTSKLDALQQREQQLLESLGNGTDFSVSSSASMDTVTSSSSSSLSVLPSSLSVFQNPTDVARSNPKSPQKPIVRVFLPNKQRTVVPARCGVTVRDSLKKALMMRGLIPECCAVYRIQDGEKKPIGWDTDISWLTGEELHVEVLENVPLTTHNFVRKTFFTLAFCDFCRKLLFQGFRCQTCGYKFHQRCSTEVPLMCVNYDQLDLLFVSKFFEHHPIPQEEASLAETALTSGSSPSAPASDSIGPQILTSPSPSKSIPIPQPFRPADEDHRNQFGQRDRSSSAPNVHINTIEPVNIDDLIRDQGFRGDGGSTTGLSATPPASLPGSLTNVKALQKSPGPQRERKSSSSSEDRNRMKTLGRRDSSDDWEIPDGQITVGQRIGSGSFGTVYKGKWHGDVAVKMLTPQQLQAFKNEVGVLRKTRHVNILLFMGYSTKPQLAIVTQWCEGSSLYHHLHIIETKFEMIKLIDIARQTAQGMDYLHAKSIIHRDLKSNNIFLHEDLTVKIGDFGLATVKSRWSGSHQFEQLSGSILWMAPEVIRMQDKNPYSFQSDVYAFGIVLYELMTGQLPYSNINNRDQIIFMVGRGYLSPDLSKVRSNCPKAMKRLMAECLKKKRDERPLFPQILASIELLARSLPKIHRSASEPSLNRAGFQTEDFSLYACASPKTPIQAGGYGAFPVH

[3] = system: CYP1A2 and CYP2C19; details: metabolic pathway contribution; cited from earlier work
[4] = cited from earlier work; for dose absorbed: human
[5] = in vivo; cited from earlier work
[6] = biological target: T1, UGT1A1 (Homo sapiens, UniProt P22309); details: cited from earlier work
T1 sequence (P22309 26-533): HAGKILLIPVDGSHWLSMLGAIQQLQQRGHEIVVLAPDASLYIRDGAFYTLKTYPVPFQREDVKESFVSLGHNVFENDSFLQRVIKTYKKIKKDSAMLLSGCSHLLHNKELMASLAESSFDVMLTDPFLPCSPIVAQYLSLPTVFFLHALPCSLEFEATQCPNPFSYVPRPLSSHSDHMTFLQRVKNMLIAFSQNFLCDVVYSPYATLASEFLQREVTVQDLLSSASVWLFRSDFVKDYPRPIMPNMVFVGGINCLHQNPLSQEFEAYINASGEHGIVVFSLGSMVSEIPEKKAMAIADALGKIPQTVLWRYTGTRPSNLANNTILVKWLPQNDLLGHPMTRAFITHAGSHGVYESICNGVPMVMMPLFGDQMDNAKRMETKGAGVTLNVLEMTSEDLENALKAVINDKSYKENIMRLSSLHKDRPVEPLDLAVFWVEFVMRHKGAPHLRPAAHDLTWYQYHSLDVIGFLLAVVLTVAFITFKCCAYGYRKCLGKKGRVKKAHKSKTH

[7] = humans; cited from earlier work
[8] = system: P-gp and BCRP; details: in vitro; cited from earlier work
[9] = system: CYP3A4, CYP2C19, and CYP2D6; details: in vitro, cited from earlier work
[10] = system: CYP1A2, CYP2B6, CYP2C8, CYP2C9, CYP3A4 and UGT1A1; details: cited from earlier work
[11] = system: CYP2B6, CYP2C9 and CYP3A4; details: human primary hepatocytes; cited from earlier work
[12] = system: P-gp, BCRP, OATP1B1, OATP1B3, OAT1, OAT3 and OCT2; details: in vitro, cited from earlier work
[13] = biological target: CYP3A4 (Homo sapiens, UniProt P08684); details: cited from earlier work
CYP3A4, sequence (P08684 whole entry): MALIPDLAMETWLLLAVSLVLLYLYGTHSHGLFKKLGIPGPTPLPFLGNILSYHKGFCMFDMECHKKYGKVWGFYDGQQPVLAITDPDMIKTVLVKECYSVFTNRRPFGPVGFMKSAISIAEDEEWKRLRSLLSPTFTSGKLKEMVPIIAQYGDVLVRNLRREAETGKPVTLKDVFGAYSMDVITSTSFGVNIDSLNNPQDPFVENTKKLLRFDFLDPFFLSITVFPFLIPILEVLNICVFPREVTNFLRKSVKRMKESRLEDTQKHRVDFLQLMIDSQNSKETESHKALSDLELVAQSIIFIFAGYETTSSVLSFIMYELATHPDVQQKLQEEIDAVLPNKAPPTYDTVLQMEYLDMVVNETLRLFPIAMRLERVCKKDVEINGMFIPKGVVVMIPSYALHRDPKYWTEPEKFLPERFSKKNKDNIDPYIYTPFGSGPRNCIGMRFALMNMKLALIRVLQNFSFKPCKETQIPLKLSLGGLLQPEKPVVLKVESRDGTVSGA

[14] = system: CYP3A; details: concomitant administration; cited from earlier work
[15] = system: BRAF-mutated pancreatic cancer; test: Response and progression-free survival on BRAF/MEK/ERK-directed therapy, retrospective clinical case series; assay type: in vivo, human; details: patients with fusion abnormalities, single agent trametinib
Excerpt: Each horizontal bar represents the time on therapy without disease progression (i.e. progression-free survival). […] Bars capped with arrows indicate lines of therapy that were continuing as of the last available progress note (censored event).
Individual patient charts were retrospectively reviewed, and clinical information was extracted.
Demographic, clinical descriptors, and outcomes data were collected under institution-specific IRB-approved protocols for each individual site. The data from each site was de-identified before being shared in a HIPAA-compliant database.
Demographic data, date of diagnosis, staging information, treatment history, and response to therapy were collected from all participating sites. Overall survival (OS) was calculated from the time of the patient's diagnosis of advanced PC (i.e. the date of recurrence following surgical resection or the date of initial diagnosis in the context of metastatic or unresectable disease) until death (survival event) or last follow-up (censored event). […] Progression-free survival (PFS) was calculated from the time of initiation of a therapy until discontinuation due to disease progression (survival event), cessation due to tolerability issues (censored event), or the last follow-up (censored event).
All survival analysis methods were implemented in an R/Bioconductor programming environment. […]

## CC(C)(C)c1nc(-c2cccc(NS(=O)(=O)c3c(F)cccc3F)c2F)c(-c2ccnc(N)n2)s1 [dabrafenib]
[1]
  clinical activity: significant activity
[2]
  Implications for BRAF Inhibitors: dabrafenib sensitivity: sensitive;

## Cn1cnc2c(F)c(Nc3ccc(Br)cc3F)c(C(=O)NOCCO)cc21 [Binimetinib]
[3]
  N-dealkylation via CYP1A2 and CYP2C19: up to 17.8%
[4]
  dose absorbed: approximately 50%
[4]; in vivo
  accumulation: approximately 1.5 fold
  estimated renal clearance of unchanged drug: 6.3 % of total dose
  excretion of unchanged drug in feces: 31.7%
  excretion of unchanged drug in urine: 18.4%
  time to steady state concentrations: ≤ 15 days
[5]
  known potential toxicities, Very Common (≥10%): diarrhea, nausea, vomiting, fatigue, peripheral edema, increased AST, increased blood creatine phosphokinase, dermatitis acneiform, dry skin, pruritus, rash, decreased ejection fraction
[6]; in vitro
  primary route of metabolism: primarily metabolized by glucuronidation through UGT1A1
[6]; metabolic pathway contribution
  glucuronidation via UGT1A1: up to 61.2%
[7]
  blood-to-plasma concentration ratio: 0.718
  bound to plasma proteins: 97.2%
[8]
  transporter substrate: substrate of P-gp and BCRP; also recorded: substrate for P-gp and BCRP

## COC(=O)N[C@@H](C)CNc1nccc(-c2cn(C(C)C)nc2-c2cc(Cl)cc(NS(C)(=O)=O)c2F)n1 [Encorafenib]
[9]
  metabolising enzymes and pathway: metabolized by CYP3A4 and to a lesser extent by CYP2C19; also recorded: N-dealkylation is the primary metabolic pathway; CYP3A4 (primary), CYP2C19, and CYP2D6 (minor) contribute to total oxidative clearance in human liver microsomes
[9]; listed as encorafenib
  metabolising enzymes and pathway: mainly metabolized by CYP3A
[10]
  reversible enzyme inhibition: reversible inhibitor of CYP1A2, CYP2B6, CYP2C8, CYP2C9, CYP3A4 and UGT1A1
[4]
  dose absorbed: At least 86%
[4]; in vivo
  excretion, feces: 39%
  excretion, urine: 47.2%
[11]
  enzyme induction: induced CYP2B6, CYP2C9 and CYP3A4
[12]
  transporter inhibition: potent inhibitor of the renal transporters, OAT1, OAT3 and OCT2, and the hepatic transporters OATP1B1 and OATP1B3
[12]; listed as encorafenib
  transporter inhibition: can potentially inhibit the transporters P-gp, BCRP, OATP1B1, OATP1B3, OAT1, OAT3 and OCT2 at clinical concentrations
[13]
  time-dependent enzyme inhibition: time-dependent inhibitor of CYP3A4
[8]
  transporter substrate: substrate of the transporter P-gp
[14]
  effect of strong or moderate CYP3A inhibitors on exposure: may increase encorafenib plasma concentration

## CC(=O)Nc1cccc(-n2c(=O)n(C3CC3)c(=O)c3c(Nc4ccc(I)cc4F)n(C)c(=O)c(C)c32)c1 [trametinib]
[15]
  patients having disease control: 4/6
